From ChEMBL document CHEMBL5113426, “Design, synthesis and antitumor activity study of PARP-1/HDAC dual targeting inhibitors” (Bioorg Med Chem Lett, 2022)
Calls of active or inactive are those of the source. No cut-off for these calls is given here.

Assays:
Histone deacetylase = assay: Inhibition of HDAC derived from human HeLa cell nucleus; format: subcellular
ES-2 [1] = assay: Antiproliferative activity against human ES2 cells assessed as reduction in cell viability measured after 7 days; format: functional, cell-based; settings: ES-2, 168 h
[2] = target: Poly [ADP-ribose] polymerase 1 (Homo sapiens, UniProt P09874); assay: Inhibition of PARP-1 derived from human HeLa cell nucleus; format: subcellular
MDA-MB-231 [3] = assay: Antiproliferative activity against human MDA-MB-231 cells assessed as reduction in cell viability measured after 7 days; format: functional, cell-based; settings: MDA-MB-231, 168 h
DU-145 = assay: Antiproliferative activity against human DU-145 cells assessed as reduction in cell viability; format: functional, cell-based
CAPAN-1 = assay: Antiproliferative activity against human CAPAN-1 cells assessed as reduction in cell viability; format: functional, cell-based
A549 = assay: Antiproliferative activity against human A549 cells assessed as reduction in cell viability; format: functional, cell-based
Histone deacetylase 3 = Histone deacetylase 3 (Homo sapiens, UniProt O15379); assay: Inhibition of HDAC3 (unknown origin)
[4] = Cytotoxicity against human EA.hy 926 assessed as inhibition of cell growth; format: toxicity, cell-based; settings: EA.hy 926 cells
Histone deacetylase 4 = Histone deacetylase 4 (Homo sapiens, UniProt P56524); assay: Inhibition of HDAC4 (unknown origin)
Histone deacetylase 8 = target: T1, Histone deacetylase 8 (Homo sapiens, UniProt Q9BY41); assay: Inhibition of HDAC8 (unknown origin)
T1 sequence (Q9BY41 whole entry): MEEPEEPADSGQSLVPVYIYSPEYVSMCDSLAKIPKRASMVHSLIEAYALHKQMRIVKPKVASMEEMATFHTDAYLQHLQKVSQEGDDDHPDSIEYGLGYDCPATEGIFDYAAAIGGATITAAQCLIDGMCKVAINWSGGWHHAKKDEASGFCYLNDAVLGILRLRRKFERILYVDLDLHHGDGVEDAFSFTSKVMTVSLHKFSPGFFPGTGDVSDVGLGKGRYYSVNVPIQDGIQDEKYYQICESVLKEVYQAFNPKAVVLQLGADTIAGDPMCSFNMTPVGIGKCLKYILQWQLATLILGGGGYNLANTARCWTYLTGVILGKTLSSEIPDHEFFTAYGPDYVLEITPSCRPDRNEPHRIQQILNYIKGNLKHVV

[5] = target: T2, Protein deacetylase HDAC6 (Homo sapiens, UniProt Q9UBN7); assay: Inhibition of HDAC6 (unknown origin)
T2 sequence (Q9UBN7 whole entry): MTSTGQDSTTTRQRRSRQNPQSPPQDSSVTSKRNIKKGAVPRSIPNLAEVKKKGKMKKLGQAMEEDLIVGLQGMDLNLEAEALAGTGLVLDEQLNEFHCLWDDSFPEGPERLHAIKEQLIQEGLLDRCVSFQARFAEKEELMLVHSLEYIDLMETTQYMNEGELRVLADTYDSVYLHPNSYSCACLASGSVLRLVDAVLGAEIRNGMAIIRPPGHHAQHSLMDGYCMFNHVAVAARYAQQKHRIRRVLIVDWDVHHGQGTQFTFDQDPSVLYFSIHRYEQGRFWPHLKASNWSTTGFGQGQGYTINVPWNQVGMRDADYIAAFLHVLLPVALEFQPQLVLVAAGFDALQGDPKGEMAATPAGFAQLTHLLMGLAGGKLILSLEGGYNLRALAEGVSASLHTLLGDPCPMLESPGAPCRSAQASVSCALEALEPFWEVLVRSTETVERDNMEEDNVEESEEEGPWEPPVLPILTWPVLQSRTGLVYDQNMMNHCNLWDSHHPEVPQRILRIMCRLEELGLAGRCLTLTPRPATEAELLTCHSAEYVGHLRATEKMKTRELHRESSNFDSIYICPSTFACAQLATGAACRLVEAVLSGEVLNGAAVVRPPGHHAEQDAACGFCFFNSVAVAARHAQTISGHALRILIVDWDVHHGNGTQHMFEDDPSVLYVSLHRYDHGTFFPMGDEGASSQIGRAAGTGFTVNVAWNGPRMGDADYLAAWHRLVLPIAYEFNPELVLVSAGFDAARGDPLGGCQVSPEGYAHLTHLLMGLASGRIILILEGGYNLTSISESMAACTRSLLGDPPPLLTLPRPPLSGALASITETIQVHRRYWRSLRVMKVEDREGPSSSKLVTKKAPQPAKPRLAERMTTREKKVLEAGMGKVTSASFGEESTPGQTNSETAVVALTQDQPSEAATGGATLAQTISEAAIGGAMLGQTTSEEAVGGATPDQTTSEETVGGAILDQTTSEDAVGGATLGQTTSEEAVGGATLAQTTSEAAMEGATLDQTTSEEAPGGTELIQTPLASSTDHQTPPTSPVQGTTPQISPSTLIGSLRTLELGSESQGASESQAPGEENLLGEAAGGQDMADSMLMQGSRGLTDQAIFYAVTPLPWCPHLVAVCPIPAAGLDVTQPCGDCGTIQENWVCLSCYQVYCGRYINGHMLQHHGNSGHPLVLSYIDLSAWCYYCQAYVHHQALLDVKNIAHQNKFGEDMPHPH

[6] = target: Vascular endothelial growth factor receptor 2 (Homo sapiens, UniProt P35968); assay: Inhibition of VEGFR2 (unknown origin)
HCC1937 = assay: Antiproliferative activity against human HCC1937 cells assessed as reduction in cell viability; format: functional, cell-based
Histone deacetylase 2 = Histone deacetylase 2 (Homo sapiens, UniProt Q92769); assay: Inhibition of HDAC2 (unknown origin)
ES-2 [7] = assay: Upregulation of Ac-HH3 expression in human ES2 cells at 10 uM by Western blot analysis; format: functional, cell-based
HUVEC = assay: Antiangiogenesis activity in HUVEC cells assessed as damage in vascular tube structure at 5 to 10 uM by tube formation assay; format: functional, cell-based; settings: Homo sapiens, dose 5-10 µM
ES-2 [8] = assay: Upregulation of Ac-HH4 expression in human ES2 cells at 10 uM by Western blot analysis; format: functional, cell-based
MDA-MB-436 = assay: Induction of intracellular ROS generation in human MDA-MB-436 cells assessed as increase in ROS level by DCFH-DA staining based microscopic analysis; format: functional, cell-based; settings: dose 1.25-5 µM, DDE = dose-dependent effect
MDA-MB-231 [9] = assay: Inhibition of cell migration in human MDA-MB-231 cells at 3 to 10 uM measured upto 48 hrs by wound healing assay; format: functional, cell-based; settings: dose 3-10 µM
ES-2 [10] = assay: Upregulation of Ac-tubulin expression in human ES2 cells at 0.3 uM by Western blot analysis; format: functional, cell-based

Poly [ADP-ribose] polymerase 1, sequence (P09874 whole entry): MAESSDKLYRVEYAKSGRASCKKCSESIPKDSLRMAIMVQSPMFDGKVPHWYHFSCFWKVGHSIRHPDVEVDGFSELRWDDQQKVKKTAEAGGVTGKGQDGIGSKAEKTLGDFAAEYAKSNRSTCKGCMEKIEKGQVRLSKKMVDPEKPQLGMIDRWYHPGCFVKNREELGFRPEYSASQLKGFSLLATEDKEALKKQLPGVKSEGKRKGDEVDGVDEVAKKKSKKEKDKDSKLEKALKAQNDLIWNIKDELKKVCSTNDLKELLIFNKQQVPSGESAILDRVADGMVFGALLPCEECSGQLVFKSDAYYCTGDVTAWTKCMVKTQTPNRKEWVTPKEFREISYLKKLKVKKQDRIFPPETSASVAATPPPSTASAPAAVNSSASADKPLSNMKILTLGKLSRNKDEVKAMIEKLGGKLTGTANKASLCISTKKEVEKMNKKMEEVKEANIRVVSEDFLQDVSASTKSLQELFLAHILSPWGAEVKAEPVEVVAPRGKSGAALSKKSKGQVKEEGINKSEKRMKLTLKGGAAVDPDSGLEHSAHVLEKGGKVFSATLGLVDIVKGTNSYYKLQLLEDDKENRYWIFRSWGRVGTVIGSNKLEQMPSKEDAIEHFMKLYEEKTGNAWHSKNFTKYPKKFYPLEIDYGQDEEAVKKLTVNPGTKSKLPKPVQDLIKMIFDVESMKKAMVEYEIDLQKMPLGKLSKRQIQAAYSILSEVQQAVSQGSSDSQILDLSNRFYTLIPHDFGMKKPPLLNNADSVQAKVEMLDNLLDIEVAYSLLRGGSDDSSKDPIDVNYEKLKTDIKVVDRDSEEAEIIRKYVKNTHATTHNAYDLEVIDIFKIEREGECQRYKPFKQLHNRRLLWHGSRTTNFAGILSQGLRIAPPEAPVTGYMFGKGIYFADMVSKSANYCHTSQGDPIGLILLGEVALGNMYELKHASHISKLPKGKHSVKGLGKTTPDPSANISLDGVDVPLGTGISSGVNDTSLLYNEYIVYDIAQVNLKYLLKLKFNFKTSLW
Histone deacetylase 2, sequence (Q92769 whole entry): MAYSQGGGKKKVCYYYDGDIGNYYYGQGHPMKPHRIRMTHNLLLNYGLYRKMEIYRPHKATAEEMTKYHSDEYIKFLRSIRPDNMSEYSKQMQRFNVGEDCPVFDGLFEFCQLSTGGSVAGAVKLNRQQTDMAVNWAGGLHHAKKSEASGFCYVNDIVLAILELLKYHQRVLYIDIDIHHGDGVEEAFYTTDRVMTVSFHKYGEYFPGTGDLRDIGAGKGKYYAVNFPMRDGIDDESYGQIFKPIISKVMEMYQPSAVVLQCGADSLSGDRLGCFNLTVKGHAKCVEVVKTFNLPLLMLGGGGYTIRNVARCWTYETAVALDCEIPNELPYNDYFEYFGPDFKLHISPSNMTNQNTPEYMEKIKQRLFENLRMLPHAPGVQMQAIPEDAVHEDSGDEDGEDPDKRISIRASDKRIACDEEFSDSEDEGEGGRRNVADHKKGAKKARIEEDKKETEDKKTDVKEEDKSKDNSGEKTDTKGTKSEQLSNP
Histone deacetylase 3, sequence (O15379 whole entry): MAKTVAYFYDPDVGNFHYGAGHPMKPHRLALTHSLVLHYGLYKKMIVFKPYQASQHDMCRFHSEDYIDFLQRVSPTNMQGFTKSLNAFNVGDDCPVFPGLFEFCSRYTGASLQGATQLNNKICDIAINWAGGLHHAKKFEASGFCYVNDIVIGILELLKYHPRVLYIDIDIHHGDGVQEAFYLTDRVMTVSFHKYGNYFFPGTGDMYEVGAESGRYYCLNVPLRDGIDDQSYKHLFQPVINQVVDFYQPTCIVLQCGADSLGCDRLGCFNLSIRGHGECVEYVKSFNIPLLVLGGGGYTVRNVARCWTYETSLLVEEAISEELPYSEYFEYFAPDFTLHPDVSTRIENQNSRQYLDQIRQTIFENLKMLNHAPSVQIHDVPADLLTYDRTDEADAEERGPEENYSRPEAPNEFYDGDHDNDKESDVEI
Vascular endothelial growth factor receptor 2, sequence (P35968 whole entry): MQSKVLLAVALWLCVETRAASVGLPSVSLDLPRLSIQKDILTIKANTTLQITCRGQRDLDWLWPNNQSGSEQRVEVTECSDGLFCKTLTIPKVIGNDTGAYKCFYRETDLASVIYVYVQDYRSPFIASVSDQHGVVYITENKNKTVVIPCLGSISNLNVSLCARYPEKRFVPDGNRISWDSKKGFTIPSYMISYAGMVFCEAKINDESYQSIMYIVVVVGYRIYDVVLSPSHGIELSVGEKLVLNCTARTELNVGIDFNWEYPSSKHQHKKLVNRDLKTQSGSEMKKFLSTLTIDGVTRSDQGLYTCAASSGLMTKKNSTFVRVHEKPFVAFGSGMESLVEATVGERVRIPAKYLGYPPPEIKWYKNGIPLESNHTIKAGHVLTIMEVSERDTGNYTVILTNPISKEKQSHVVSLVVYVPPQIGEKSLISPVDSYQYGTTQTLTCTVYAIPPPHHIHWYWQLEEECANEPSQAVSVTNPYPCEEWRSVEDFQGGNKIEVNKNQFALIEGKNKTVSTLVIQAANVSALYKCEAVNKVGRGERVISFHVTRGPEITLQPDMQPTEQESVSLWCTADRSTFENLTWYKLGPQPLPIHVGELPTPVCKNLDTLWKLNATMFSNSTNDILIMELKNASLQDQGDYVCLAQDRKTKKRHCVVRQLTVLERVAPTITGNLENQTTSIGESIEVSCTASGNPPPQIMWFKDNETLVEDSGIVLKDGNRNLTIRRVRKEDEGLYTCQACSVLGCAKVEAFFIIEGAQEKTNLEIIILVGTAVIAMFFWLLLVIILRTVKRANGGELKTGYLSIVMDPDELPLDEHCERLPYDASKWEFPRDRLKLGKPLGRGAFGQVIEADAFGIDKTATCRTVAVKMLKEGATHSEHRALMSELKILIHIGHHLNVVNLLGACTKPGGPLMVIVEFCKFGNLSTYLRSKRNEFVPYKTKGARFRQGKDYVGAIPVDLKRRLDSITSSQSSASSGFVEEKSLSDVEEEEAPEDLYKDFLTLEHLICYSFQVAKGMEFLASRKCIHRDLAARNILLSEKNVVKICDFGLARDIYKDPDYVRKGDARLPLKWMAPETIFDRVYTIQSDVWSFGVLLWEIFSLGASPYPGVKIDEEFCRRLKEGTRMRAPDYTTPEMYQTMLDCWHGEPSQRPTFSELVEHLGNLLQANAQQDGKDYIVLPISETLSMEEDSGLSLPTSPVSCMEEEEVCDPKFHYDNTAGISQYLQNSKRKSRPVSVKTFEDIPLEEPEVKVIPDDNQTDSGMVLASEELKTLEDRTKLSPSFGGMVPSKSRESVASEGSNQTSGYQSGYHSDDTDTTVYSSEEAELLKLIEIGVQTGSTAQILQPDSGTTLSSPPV
Histone deacetylase 4, sequence (P56524 whole entry): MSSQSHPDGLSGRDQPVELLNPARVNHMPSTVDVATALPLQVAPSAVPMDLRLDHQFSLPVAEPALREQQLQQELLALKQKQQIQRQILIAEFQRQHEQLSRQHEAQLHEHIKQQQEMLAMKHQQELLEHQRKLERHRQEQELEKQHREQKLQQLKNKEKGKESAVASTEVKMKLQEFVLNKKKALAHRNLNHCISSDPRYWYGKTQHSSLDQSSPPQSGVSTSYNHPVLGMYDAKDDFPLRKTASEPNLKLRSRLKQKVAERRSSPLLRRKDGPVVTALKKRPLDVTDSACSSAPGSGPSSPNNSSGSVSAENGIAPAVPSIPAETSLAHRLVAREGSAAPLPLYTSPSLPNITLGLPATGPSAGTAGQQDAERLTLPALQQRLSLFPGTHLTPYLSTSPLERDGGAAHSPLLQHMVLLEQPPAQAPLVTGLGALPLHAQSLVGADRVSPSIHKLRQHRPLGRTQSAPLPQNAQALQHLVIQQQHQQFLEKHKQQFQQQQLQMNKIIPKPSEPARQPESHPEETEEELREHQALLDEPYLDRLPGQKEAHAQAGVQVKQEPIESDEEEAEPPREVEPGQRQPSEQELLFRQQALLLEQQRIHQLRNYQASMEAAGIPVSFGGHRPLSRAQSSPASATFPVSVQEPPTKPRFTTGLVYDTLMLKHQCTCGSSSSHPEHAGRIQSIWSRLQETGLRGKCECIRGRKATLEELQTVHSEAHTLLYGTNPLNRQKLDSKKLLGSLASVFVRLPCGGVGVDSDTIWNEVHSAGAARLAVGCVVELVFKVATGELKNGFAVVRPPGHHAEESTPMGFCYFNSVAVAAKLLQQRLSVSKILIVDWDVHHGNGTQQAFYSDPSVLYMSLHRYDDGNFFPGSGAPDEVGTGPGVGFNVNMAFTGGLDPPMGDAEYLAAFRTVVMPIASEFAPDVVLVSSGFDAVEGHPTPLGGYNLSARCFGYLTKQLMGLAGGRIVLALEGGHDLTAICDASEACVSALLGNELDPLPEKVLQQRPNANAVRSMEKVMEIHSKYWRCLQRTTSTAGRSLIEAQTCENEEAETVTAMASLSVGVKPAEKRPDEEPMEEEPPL

Structure (SMILES)	IC50 (Histone deacetylase) [µM]	IC50 (ES-2 [1]) [µM]	IC50 [2] [µM]	IC50 (MDA-MB-231 [3]) [µM]	IC50 (DU-145) [µM]	IC50 (CAPAN-1) [µM]	IC50 (A549) [µM]	IC50 (HCC1937) [µM]	other results
NC(=O)c1cccc2cn(-c3ccc(OCCCCCC(=O)NO)cc3)nc12	> 30	1.68	0.285	4.28					
NC(=O)/C=C/c1ccc(COc2ccc(-n3cc4cccc(C(N)=O)c4n3)cc2)cc1	10.6	0.42	0.227	0.34	3.59	6.55	6.98	1.92	IC50 (Histone deacetylase 3): 2.19 µM; IC50 [4]: 26 µM; IC50 (Histone deacetylase 4): > 100 µM; IC50 (Histone deacetylase 8): > 100 µM; IC50 [5]: 0.51 µM; IC50 [6]: 0.0034 µM; IC50 (Histone deacetylase 2): 31 µM
NC(=O)c1cccc2cn(-c3ccc(OCCCC(=O)NO)cc3)nc12	> 30	12.7	0.102	9.93					
NC(=O)c1cccc2cn(-c3ccc(OCCCCC(=O)NO)cc3)nc12	> 30	3.64	0.102	2.41					
NC(=O)c1ccc(COc2ccc(-n3cc4cccc(C(N)=O)c4n3)cc2)cc1	10.8	1.16	0.0689	0.35	3.38	4.53	5.67	2.85	IC50 (Histone deacetylase 3): 7.22 µM; IC50 [4]: 5.41 µM; IC50 (Histone deacetylase 4): > 100 µM; Activity (ES-2 [7]): Active; IC50 (Histone deacetylase 8): > 100 µM; Activity (HUVEC): Active; Activity (ES-2 [8]): Active; IC50 [5]: 0.54 µM; Activity (MDA-MB-436): Dde; IC50 [6]: 0.00592 µM; inhibition (MDA-MB-231 [9]): Active; IC50 (Histone deacetylase 2): 42.1 µM; Activity (ES-2 [10]): Active
NC(=O)c1cccc2cn(-c3ccc(OCCCCCCCC(=O)NO)cc3)nc12	13.7	6.15	0.245	> 30					
O=C(c1cc(Cc2n[nH]c(=O)c3ccccc23)ccc1F)N1CCN(C(=O)C2CC2)CC1 [OLAPARIB]		2.05		0.69	11.4	1.67	5.89	> 30	
NC(=O)c1cccc2[nH]c(-c3ccc(OCCCCCCCC(=O)NO)cc3)nc12	> 30	> 30	0.0475	> 30					
NC(=O)c1cccc2[nH]c(-c3ccc(OCCCCC(=O)NO)cc3)nc12	> 30	> 30	0.0121	> 30					
NC(=O)c1cccc2[nH]c(-c3ccc(OCCCCCCC(=O)NO)cc3)nc12	7	> 30	0.038	> 30					
NC(=O)/C=C/c1ccc(COc2ccc(-c3nc4c(C(N)=O)cccc4[nH]3)cc2)cc1	7.9	1.37	0.0274	0.69	4.7	5.63	7.72	2.88	
NC(=O)c1ccc(COc2ccc(-c3nc4c(C(N)=O)cccc4[nH]3)cc2)cc1	7.7	1.16	0.031	1.08	8.56	26.4	16.4	4.05	
NC(=O)c1cccc2[nH]c(-c3ccc(OCCCC(=O)NO)cc3)nc12	> 30	> 30	0.0142	> 30					
NC(=O)c1cccc2cn(-c3ccc(OCCCCCCC(=O)NO)cc3)nc12	> 30	1.57	0.128	> 30					
NC(=O)c1cccc2[nH]c(-c3ccc(OCCCCCC(=O)NO)cc3)nc12	5.5	> 30	0.0202	> 30					
